Assay results as given in patent US8362022B2, “Selective subtype alpha 2 adrenergic agents and methods for use thereof” (Allergan, Inc., priority 2008, dated 2013).
Where two headings read alike, the source gives them in different places.

What was measured:
Format in all cases: cell-based
[1] = biological target: T1, alpha 2B receptor (Homo sapiens, UniProt P18089); experiment: RSAT assay (Receptor Selection and Amplification Technology), Alpha 2B; conditions: for Intrinsic Activity efficacy Alpha 2B: value in parentheses, ratio of maximal effect to that of brimonidine
T1 construct: expressed in transfected cells; host or cells: NIH-3T3
T1 sequence (P18089 1-450): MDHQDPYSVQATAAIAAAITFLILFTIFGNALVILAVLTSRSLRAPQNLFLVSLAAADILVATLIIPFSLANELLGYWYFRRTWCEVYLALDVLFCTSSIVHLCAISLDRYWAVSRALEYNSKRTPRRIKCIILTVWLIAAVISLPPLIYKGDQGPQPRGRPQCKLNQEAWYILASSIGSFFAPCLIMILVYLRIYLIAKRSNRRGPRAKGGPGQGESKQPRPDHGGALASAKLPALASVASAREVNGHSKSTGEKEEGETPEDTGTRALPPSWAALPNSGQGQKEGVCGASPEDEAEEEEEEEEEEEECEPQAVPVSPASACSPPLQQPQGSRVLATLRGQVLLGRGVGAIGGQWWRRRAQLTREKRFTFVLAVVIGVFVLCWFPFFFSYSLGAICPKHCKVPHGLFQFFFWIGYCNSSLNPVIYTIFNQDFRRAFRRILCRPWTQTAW
Description: (§1) The RSAT assay measures a receptor-mediated loss of contact inhibition that results in selective proliferation of receptor-containing cells in a mixed population of confluent cells. The increase in cell number is assessed with an appropriate transfected marker gene such as β-galactosidase, the activity of which can be easily measured in a 96-well format. Receptors that activate the G protein, Gq, elicit this response. Alpha 2 receptors, which normally couple to Gi, activate the RSAT response when coexpressed with a hybrid Gq protein that has a Gi receptor recognition domain, called Gq/i5.
(§2) NIH-3T3 cells are plated at a density of 2×10^6 cells in 15 cm dishes and maintained in Dulbecco's modified Eagle's medium supplemented with 10% calf serum. One day later, cells are cotransfected by calcium phosphate precipitation with mammalian expression plasmids encoding p-SV-β-galactosidase (5-10 μg), receptor (1-2 μg) and G protein (1-2 μg). 40 μg salmon sperm DNA may also be included in the transfection mixture. […] Cells are thawed and 100 μl added to 100 μL aliquots of various concentrations of drugs in triplicate in 96-well dishes. Incubations continue 72-96 hr at 37° C. After washing with phosphate-buffered saline, β-galactosidase enzyme activity is determined by adding 200 μL of the chromogenic substrate (consisting of 3.5 mM o-nitrophenyl-β-D-galactopyranoside and 0.5% nonidet P-40 in phosphate buffered saline), incubating overnight at 30° C. and measuring optical density at 420 nm. The absorbance is a measure of enzyme activity, which depends on cell number and reflects a receptor-mediated cell proliferation. The efficacy or intrinsic activity is calculated as a ratio of the maximal effect of the drug to the maximal effect of a standard full agonist for each receptor subtype. Brimonidine, the chemical structure of which is shown below, is used as the standard agonist for the alpha 2B and alpha 2C receptors. […] NA stands for “not active” at concentrations less than 3-10 micromolar.

[2] = biological target: T2, Alpha 1A (Homo sapiens, UniProt P35348); experiment: RSAT assay (Receptor Selection and Amplification Technology), Alpha 1A; conditions: value in parentheses, ratio of maximal effect of drug to maximal effect of standard full agonist
T2 sequence (P35348 1-466): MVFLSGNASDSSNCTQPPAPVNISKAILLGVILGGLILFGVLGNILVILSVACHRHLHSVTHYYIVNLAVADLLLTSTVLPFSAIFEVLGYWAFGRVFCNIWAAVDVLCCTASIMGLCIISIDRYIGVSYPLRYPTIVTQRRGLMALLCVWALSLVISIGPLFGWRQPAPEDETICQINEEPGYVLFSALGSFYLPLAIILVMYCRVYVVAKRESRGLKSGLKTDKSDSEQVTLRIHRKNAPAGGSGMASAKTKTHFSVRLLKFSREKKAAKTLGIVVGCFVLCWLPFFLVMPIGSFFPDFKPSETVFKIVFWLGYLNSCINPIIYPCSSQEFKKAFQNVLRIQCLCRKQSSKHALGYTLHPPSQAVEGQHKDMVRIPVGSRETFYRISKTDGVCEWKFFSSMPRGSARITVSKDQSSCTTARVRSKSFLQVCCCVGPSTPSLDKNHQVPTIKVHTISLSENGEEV
Description: as §1, §2

[3] = biological target: T3, alpha 2C receptor (Homo sapiens, UniProt P18825); experiment: RSAT assay (Receptor Selection and Amplification Technology), Alpha 2C; conditions: for Intrinsic Activity efficacy Alpha 2C: value in parentheses, ratio of maximal effect to that of brimonidine
T3 construct: expressed in transfected cells; host or cells: NIH-3T3
T3 sequence (P18825 1-462): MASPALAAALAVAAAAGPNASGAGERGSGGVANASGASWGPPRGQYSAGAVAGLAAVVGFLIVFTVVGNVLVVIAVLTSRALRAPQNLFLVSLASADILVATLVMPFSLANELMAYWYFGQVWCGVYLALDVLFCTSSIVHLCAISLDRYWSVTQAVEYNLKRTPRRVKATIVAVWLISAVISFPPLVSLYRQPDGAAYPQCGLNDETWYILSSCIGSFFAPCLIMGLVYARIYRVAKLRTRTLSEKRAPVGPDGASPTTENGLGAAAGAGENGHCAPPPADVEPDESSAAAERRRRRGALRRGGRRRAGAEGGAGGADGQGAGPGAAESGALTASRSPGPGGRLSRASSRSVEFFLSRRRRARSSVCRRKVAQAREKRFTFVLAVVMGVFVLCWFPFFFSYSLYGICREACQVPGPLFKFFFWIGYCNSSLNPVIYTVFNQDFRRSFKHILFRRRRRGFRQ
Description: as §1, §2

[4] = RSAT, Table 2, read-out: Potency nM (EC50) Alpha 2B
[5] = RSAT, transfected NIH-3T3 cells with Gq/i5, NA = not active at concentrations less than 10 micromolar, read-out: potency nM (EC50) Alpha 2C
[6] = RSAT, transfected NIH-3T3 cells with Gq/i5, Table 1, read-out: potency nM (EC50) Alpha 2B

Structure (SMILES) | EC50 [1, 4] [nM] | Intrinsic Activity efficacy Alpha 2B ([1]; RSAT, Table 2) | Intrinsic Activity efficacy Alpha 1A [2] | further results
c1ccc(C(Cc2cccnc2)NC2=NCCN2)cc1 (stereo not shown) | 16 | 0.74 | – | –
Cc1cccc(C(Cc2ccccn2)NC2=NCCO2)c1C (stereo not shown) | 6.7 | 0.93 | – | –
Clc1cccc(C(Cc2cccnc2Br)NC2=NCCO2)c1 (stereo not shown) | 1.3 | 1.05 | – | –
Clc1cccc(C(Cc2cccnc2Cl)NC2=NCCO2)c1 (stereo not shown) | 0.48 | 1.01 | – | –
Cc1cccc(C(Cc2cccnc2Cl)NC2=NCCO2)c1 (stereo not shown) | 0.06 | 0.88 | – | –
Fc1cccc(C(Cc2cccnc2Cl)NC2=NCCO2)c1 (stereo not shown) | 0.09 | 0.87 | – | –
Clc1ncccc1CC(NC1=NCCO1)c1cccc(Br)c1 (stereo not shown) | 0.14 | 1.01 | – | –
Fc1ncccc1CC(NC1=NCCO1)c1cccc(Cl)c1 (stereo not shown) | 0.21 | 0.81 | – | –
Cc1cncc(CC(NC2=NCCO2)c2cccc(Cl)c2)c1 (stereo not shown) | 4 | 1.12 | – | –
Cc1cncc(CC(NC2=NCCO2)c2cccc(C)c2)c1 (stereo not shown) | 3 | 1.1 | – | –
c1ccc(C(Cc2cccnc2)NC2=NCCO2)cc1 (stereo not shown) | – | 0.76 | – | EC50 [1]: 4.5 nM
COc1cccc(C(Cc2cccnc2)NC2=NCCO2)c1 (stereo not shown) | 56 | 0.65 | – | –
Clc1cccc(C(Cc2cccnc2)NC2=NCCO2)c1Cl (stereo not shown) | 5.6 | 0.89 | – | –
Cc1cccc(C(Cc2cccnc2)NC2=NCCO2)c1 (stereo not shown) | 8.2 | 1.24 | – | –
Cc1c(Br)cncc1CC(NC1=NCCO1)c1cccc(Cl)c1 (stereo not shown) | 1.9 | 1.35 | – | –
Cc1cccc(C(Cc2cncc(Br)c2C)NC2=NCCO2)c1 (stereo not shown) | 2.7 | 1.02 | – | –
Cc1cncc(CC(NC2=NCCO2)c2cccc(Cl)c2)c1C (stereo not shown) | 8.5 | 0.9 | – | –

Structure (SMILES) | EC50 [1, 4] [nM] | Intrinsic Activity efficacy Alpha 2B ([1]; RSAT, Table 2) | Intrinsic Activity efficacy Alpha 1A [2] | further results
Cc1cccc(C(Cc2cncc(C)c2C)NC2=NCCO2)c1 (stereo not shown) | 3.9 | 1.11 | – | –
Cc1c(Cl)cncc1CC(NC1=NCCO1)c1cccc(Cl)c1 (stereo not shown) | 5.6 | 1.08 | – | –
c1ccc(C(Cc2ccncc2)/N=C2/NCCO2)cc1 (stereo not shown) [Compound 1, N-(Oxazolidin-2-ylidene)-1-phenyl-2-(pyridin-4-yl)ethanamine] | – | – | 1.20 | EC50 [3, 5]: 132 nM; Intrinsic Activity efficacy Alpha 2C ([3]; RSAT): 0.67; EC50 [1]: 8 nM; Intrinsic Activity efficacy Alpha 2B ([1]; RSAT, Table 1): 1.09
c1ccc(C(Cc2ccncc2)/N=C2/NCCS2)cc1 (stereo not shown) [Compound 2, 1-Phenyl-2-(pyridin-4-yl)-N-(thiazolidin-2-ylidene)ethanamine] | – | – | 1.45 | EC50 [3, 5]: 525 nM; Intrinsic Activity efficacy Alpha 2C ([3]; RSAT): 0.72; EC50 [1, 6]: 10 nM; Intrinsic Activity efficacy Alpha 2B ([1]; RSAT, Table 1): 1.18
c1ccc(C(Cc2ccncc2)N=C2NCCN2)cc1 (stereo not shown) [Compound 3, N-(Imidazolidin-2-ylidene)-1-phenyl-2-(pyridin-4-yl)ethanamine] | – | – | 0.63 | –
Cc1cccc(C(Cc2ccncc2)/N=C2/NCCS2)c1C (stereo not shown) [Compound 4, 1-(2,3-Dimethylphenyl)-2-(pyridin-4-yl)-N-(thiazolidin-2-ylidene)ethanamine] | – | – | 0.77 | EC50 [3, 5]: 14 nM; Intrinsic Activity efficacy Alpha 2C ([3]; RSAT): 0.63; EC50 [1, 6]: 3.8 nM; Intrinsic Activity efficacy Alpha 2B ([1]; RSAT, Table 1): 1.1
Cc1cccc(C(Cc2ccncc2)N=C2NCCN2)c1C (stereo not shown) [Compound 5, 1-(2,3-Dimethylphenyl)-N-(imidazolidin-2-ylidene)-2-(pyridin-4-yl)ethanamine] | – | – | – | EC50 [3]: 8.4 nM; Intrinsic Activity efficacy Alpha 2C ([3]; RSAT): 0.49; EC50 [1]: 3.1 nM; Intrinsic Activity efficacy Alpha 2B ([1]; RSAT, Table 1): 1.15
Clc1cccc(C(Cc2ccncc2)/N=C2/NCCO2)c1 (stereo not shown) [Compound 8, 1-(3-Chlorophenyl)-N-(oxazolidin-2-ylidene)-2-(pyridin-4-yl)ethanamine] | – | – | 1.4 | –
COc1ccccc1C(Cc1ccncc1)N=C1NCCN1 (stereo not shown) [Compound 10, N-(Imidazolidin-2-ylidene)-1-(2-methoxyphenyl)-2-(pyridin-4-yl)ethanamine] | – | – | 1.0 | –
c1ccc(C(Cc2cnccn2)/N=C2/NCCO2)cc1 (stereo not shown) [Compound 14, N-(Oxazolidin-2-ylidene)-1-phenyl-2-(pyrazin-2-yl)ethanamine] | – | – | 1.19 | EC50 [1, 6]: 132 nM; Intrinsic Activity efficacy Alpha 2B ([1]; RSAT, Table 1): 1.0
c1ccc(C(Cc2cnccn2)N=C2NCCN2)cc1 (stereo not shown) [Compound 15, N-(Imidazolidin-2-ylidene)-1-phenyl-2-(pyrazin-2-yl)ethanamine] | – | – | 0.72 | EC50 [1, 6]: 198 nM; Intrinsic Activity efficacy Alpha 2B ([1]; RSAT, Table 1): 0.84
Fc1c(Cl)cccc1C(Cc1ccncc1)/N=C1/NCCO1 (stereo not shown) [Compound 19, 1-(3-Chloro-2-fluorophenyl)-N-(oxazolidin-2-ylidene)-2-(pyridin-4-yl)ethanamine] | – | – | 1.27 | –
Fc1c(Cl)cccc1C(Cc1ccncc1)N=C1NCCN1 (stereo not shown) [Compound 20, 1-(3-Chloro-2-fluorophenyl)-N-(imidazolidin-2-ylidene)-2-(pyridin-4-yl)ethanamine] | – | – | 0.6 | –
Cc1cccc(C(Cc2cccnc2)/N=C2/NCCS2)c1C (stereo not shown) [Compound 22, 1-(2,3-Dimethylphenyl)-2-(pyridin-3-yl)-N-(thiazolidin-2-ylidene)ethanamine] | – | – | 0.7 | –
Fc1cccc(C(Cc2ccncc2)/N=C2/NCCS2)c1 (stereo not shown) [Compound 23, 1-(3-Fluorophenyl)-2-(pyridin-4-yl)-N-(thiazolidin-2-ylidene)ethanamine] | – | – | 1.36 | –
c1ccc([C@@H](Cc2ccncc2)N=C2NCCN2)cc1 [Compound 29, R—N-(imidazolidin-2-ylidene)-1-phenyl-2-(pyridin-4-yl)ethanamine] | – | – | 0.60 | EC50 [3, 5]: 96 nM; Intrinsic Activity efficacy Alpha 2C ([3]; RSAT): 0.60
Clc1cccc(C(Cc2ccncc2)N=C2NCCN2)c1Cl (stereo not shown) [Compound 32, 1-(2,3-Dichlorophenyl)-N-(imidazolidin-2-ylidene)-2-(pyridin-4-yl)ethanamine] | – | – | 0.52 | EC50 [1, 6]: 1 nM; Intrinsic Activity efficacy Alpha 2B ([1]; RSAT, Table 1): 1.3
